Several values for one entry are separate records, joined by “and”; a condition that tells them apart may be missing. Equal values may be shown once. Toxic doses and inconclusive results are not listed. How the source made its calls: active means survival T/C of 150% or more; inactive means T/C below 125% in these data.
System: CD2F1 mice, L1210 leukemia ip, survival T/C
Experiment: NCI In Vivo Anticancer Drug Screen. Data for tumor model L1210 Leukemia (intraperitoneal) in CD2F1 (CDF1) mice
Details: endpoint: mean survival time, higher = longer survival
Summary of the method: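 Read-out first: treated-group measurement over vehicle-control measurement, expressed as a ratio. Animals bore a transplanted tumor line and were dosed with compound or vehicle.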

[1] = dose: 100.0 mg/kg/injection, schedule: Q01DX009 (ip), vehicle: saline with Tween-80
[2] = dose: 100.0 mg/kg/injection, schedule: Q04DX003 (ip), vehicle: saline with Tween-80
[3] = dose: 200.0 mg/kg/injection, schedule: Q01DX009 (ip), vehicle: saline with Tween-80
[4] = dose: 200.0 mg/kg/injection, schedule: Q04DX003 (ip), vehicle: saline with Tween-80
[5] = dose: 400.0 mg/kg/injection, schedule: Q01DX009 (ip), vehicle: saline with Tween-80
[6] = dose: 400.0 mg/kg/injection, schedule: Q04DX003 (ip), vehicle: saline with Tween-80
[7] = dose: 50.0 mg/kg/injection, schedule: Q04DX002 (ip), vehicle: saline with Tween-80
[8] = dose: 100.0 mg/kg/injection, schedule: Q01DX001 (ip), vehicle: saline with Tween-80
[9] = dose: 200.0 mg/kg/injection, schedule: Q01DX001 (ip), vehicle: saline with Tween-80
[10] = dose: 400.0 mg/kg/injection, schedule: Q01DX001 (ip), vehicle: saline with Tween-80
[11] = dose: 12.5 mg/kg/injection, schedule: Q01DX009 (ip), vehicle: saline
[12] = dose: 25.0 mg/kg/injection, schedule: Q01DX009 (ip), vehicle: saline
[13] = dose: 50.0 mg/kg/injection, schedule: Q01DX009 (ip), vehicle: saline
[14] = dose: 25.0 mg/kg/injection, schedule: Q01DX009 (ip), vehicle: water
[15] = dose: 50.0 mg/kg/injection, schedule: Q01DX009 (ip), vehicle: water
[16] = dose: 100.0 mg/kg/injection, schedule: Q01DX009 (ip), vehicle: water

Measured: T/C

Cc1ccccc1C1(c2ccccc2C)OC(=O)c2ccccc21
inactive: dose: 100.0 mg/kg/injection, schedule: Q04DX003 (ip), vehicle: acetone 104 % of control | dose: 200.0 mg/kg/injection, schedule: Q04DX003 (ip), vehicle: acetone 88 % of control | dose: 400.0 mg/kg/injection, schedule: Q04DX003 (ip), vehicle: acetone 96 % of control

Oc1c(Cl)cc(C(c2cc(Cl)c(O)c(Cl)c2)C(c2cc(Cl)c(O)c(Cl)c2)c2cc(Cl)c(O)c(Cl)c2)cc1Cl
inactive: dose: 12.5 mg/kg/injection, schedule: Q01DX009 (ip), vehicle: Klucel (hydroxypropylcellulose) (HPC) 95 % of control | dose: 25.0 mg/kg/injection, schedule: Q01DX009 (ip), vehicle: Klucel (hydroxypropylcellulose) (HPC) 97 % of control | dose: 50.0 mg/kg/injection, schedule: Q01DX009 (ip), vehicle: Klucel (hydroxypropylcellulose) (HPC) 103 % of control | dose: 100.0 mg/kg/injection, schedule: Q01DX009 (ip), vehicle: Klucel (hydroxypropylcellulose) (HPC) 106 % of control | dose: 200.0 mg/kg/injection, schedule: Q01DX009 (ip), vehicle: Klucel (hydroxypropylcellulose) (HPC) 115 % of control | dose: 400.0 mg/kg/injection, schedule: Q01DX009 (ip), vehicle: Klucel (hydroxypropylcellulose) (HPC) 96 % of control

O=Cc1n[nH]nc1-c1ccccc1
inactive: [1] 94 % of control | [2] 98 % of control | [3] 100 % of control | [4] 101 % of control | [5] 103 % of control | [6] 95 % of control

CC1(CCOC2CCCCO2)NC(=O)NC1=O (centres undefined)
inactive: dose: 100.0 mg/kg/injection, schedule: Q01DX001 (ip), vehicle: saline sonified 102 % of control | [1] 112 % of control | dose: 200.0 mg/kg/injection, schedule: Q01DX001 (ip), vehicle: saline sonified 100 % of control | [3] 103 % of control | dose: 400.0 mg/kg/injection, schedule: Q01DX001 (ip), vehicle: saline sonified 100 % of control | [5] 103 % of control

CCCC(CC)C(=O)CC1CCCCC1 (centres undefined)
inactive: [2] 105 % of control | [4] 94 % of control | [6] 98 % of control

CSc1c(N)nc(N)[nH]c1=O
inactive: dose: 100.0 mg/kg/injection, schedule: Q01DX001 (ip), vehicle: alkali diluted with water 96 % of control | dose: 200.0 mg/kg/injection, schedule: Q01DX001 (ip), vehicle: alkali diluted with water 94 % of control | dose: 400.0 mg/kg/injection, schedule: Q01DX001 (ip), vehicle: alkali diluted with water 96 % of control

O=P(O)(O)C1c2ccccc2-c2ccccc21
inactive: [1] 100 % of control | [2] 97 % of control | [3] 94 % of control | [4] 96 % of control | [6] 100 % of control

Cc1cc(CC(Cl)(C(F)(F)F)C(F)(F)F)cc(CC(Cl)(C(F)(F)F)C(F)(F)F)n1
inactive: dose: 12.5 mg/kg/injection, schedule: Q04DX003 (ip), vehicle: saline with Tween-80 97 % of control | dose: 25.0 mg/kg/injection, schedule: Q04DX003 (ip), vehicle: saline with Tween-80 97 % of control | dose: 50.0 mg/kg/injection, schedule: Q04DX003 (ip), vehicle: saline with Tween-80 97 % of control

CCCCCCCC/C=C/CCCCCC1CCCC(C)N1 (centres undefined)
inactive: [7] 98 % of control and 102 % of control | dose: 100.0 mg/kg/injection, schedule: Q04DX002 (ip), vehicle: saline with Tween-80 94 % of control

Nc1nc2c(ncn2C2CC(O)C(CO)O2)c(=O)n1N (centres undefined)
inactive: dose: 75.0 mg/kg/injection, schedule: Q01DX001 (ip), vehicle: saline 97 % of control | dose: 150.0 mg/kg/injection, schedule: Q01DX001 (ip), vehicle: saline 100 % of control

Nc1cc(=O)[nH]c(=S)n1-c1ccccn1
inactive: dose: 100.0 mg/kg/injection, schedule: Q04DX003 (ip), vehicle: saline 101 % of control | dose: 200.0 mg/kg/injection, schedule: Q04DX003 (ip), vehicle: saline 95 % of control | dose: 400.0 mg/kg/injection, schedule: Q04DX003 (ip), vehicle: saline 97 % of control

Cc1cc(N)ccc1N(c1c(Cl)c(Cl)c(NS(=O)(=O)c2ccccc2)c(Cl)c1Cl)S(=O)(=O)c1ccccc1
inactive: dose: 100.0 mg/kg/injection, schedule: Q04DX003 (ip), vehicle: Klucel (hydroxypropylcellulose) (HPC) 95 % of control | dose: 200.0 mg/kg/injection, schedule: Q04DX003 (ip), vehicle: Klucel (hydroxypropylcellulose) (HPC) 95 % of control | dose: 400.0 mg/kg/injection, schedule: Q04DX003 (ip), vehicle: Klucel (hydroxypropylcellulose) (HPC) 95 % of control

COc1cc([C@@H]2c3cc4c(cc3C[C@H]3COC(=O)[C@@H]32)OCO4)cc(OC)c1OC
inactive: dose: 6.25 mg/kg/injection, schedule: Q01DX015 (ip), vehicle: saline 111 % of control | dose: 12.5 mg/kg/injection, schedule: Q01DX015 (ip), vehicle: saline 118 % of control | dose: 25.0 mg/kg/injection, schedule: Q01DX015 (ip), vehicle: saline 106 % of control

CNC(=O)Oc1cccc(NC(=O)OCCC(C)C)c1
inactive: [8] 96 % of control | [9] 93 % of control | [10] 96 % of control

O=C(/C=C/C=C/c1ccccc1)c1ccc(Cl)cc1
inactive: dose: 37.5 mg/kg/injection, schedule: Q04DX003 (ip), vehicle: saline with Tween-80 97 % of control | dose: 75.0 mg/kg/injection, schedule: Q04DX003 (ip), vehicle: saline with Tween-80 97 % of control | dose: 150.0 mg/kg/injection, schedule: Q04DX003 (ip), vehicle: saline with Tween-80 89 % of control | [4] 90 % of control | dose: 300.0 mg/kg/injection, schedule: Q04DX003 (ip), vehicle: saline with Tween-80 93 % of control

CCOC(=O)C1=C(C#N)C2(CCC(OCc3ccccc3)CC2)C(=O)O1 (centres undefined)
inactive: [11] 95 % of control | dose: 12.5 mg/kg/injection, schedule: Q01DX009 (ip), vehicle: suspension in saline 106 % of control | [12] 100 % of control | dose: 25.0 mg/kg/injection, schedule: Q01DX009 (ip), vehicle: suspension in saline 106 % of control | [13] 107 % of control | dose: 50.0 mg/kg/injection, schedule: Q01DX009 (ip), vehicle: suspension in saline 108 % of control | dose: 100.0 mg/kg/injection, schedule: Q01DX009 (ip), vehicle: saline 106 % of control | dose: 100.0 mg/kg/injection, schedule: Q01DX009 (ip), vehicle: suspension in saline 106 % of control | dose: 200.0 mg/kg/injection, schedule: Q01DX009 (ip), vehicle: saline 106 % of control | dose: 200.0 mg/kg/injection, schedule: Q01DX009 (ip), vehicle: suspension in saline 100 % of control | dose: 400.0 mg/kg/injection, schedule: Q01DX009 (ip), vehicle: suspension in saline 108 % of control

C1CCN(CN2CCCCC2)CC1
inactive: [11] 103 % of control | [12] 98 % of control | dose: 25.0 mg/kg/injection, schedule: Q04DX003 (ip), vehicle: saline 90 % of control | [13] 97 % of control | dose: 50.0 mg/kg/injection, schedule: Q04DX003 (ip), vehicle: saline 92 % of control

O=S(=O)(O)c1ccc2ncccc2c1
inactive: [7] 111 % of control

COc1ccc(-c2nc3c(N)nc(N)nc3nc2N)cc1OC
inactive: dose: 12.5 mg/kg/injection, schedule: Q01DX009 (ip), vehicle: water 105 % of control | [14] 103 % of control | [15] 103 % of control | [16] 98 % of control | dose: 200.0 mg/kg/injection, schedule: Q01DX009 (ip), vehicle: water 88 % of control

COC(=O)/N=C(/NC(=O)OC)SC
inactive: [8] 101 % of control | [9] 103 % of control | [10] 98 % of control

Nc1nc(N)c(N=Nc2cccc3ccccc23)c(N)n1
inactive: dose: 6.25 mg/kg/injection, schedule: Q01DX009 (ip), vehicle: other 98 % of control | dose: 12.5 mg/kg/injection, schedule: Q01DX009 (ip), vehicle: other 96 % of control | dose: 25.0 mg/kg/injection, schedule: Q01DX009 (ip), vehicle: other 95 % of control | [14] 103 % of control | dose: 50.0 mg/kg/injection, schedule: Q01DX009 (ip), vehicle: other 95 % of control | [15] 104 % of control | dose: 100.0 mg/kg/injection, schedule: Q01DX009 (ip), vehicle: other 96 % of control | [16] 87 % of control
